Laboratory results as given in patent publication US20250074901A1, “NOVEL HETEROARYL COMPOUNDS” (ICAGEN, LLC, priority 2021, published 2025).

Target: T1, Kv7.2 (Homo sapiens, UniProt O43526)
T1 construct: expressed in transfected cells
Test: Activation of Kv7.2 (in vitro assay, concentration response curve)
Assay type: cell-based
Settings: for Emax: Kv7.2 activation max %; for EC50: activation of Kv7.2
Protocol: The term “EC50” in this application is defined as: the agonistic effect of a compound can be determined by testing the compound in an in vitro assay as described herein, whereby the effect of the compound is measured across a range of compound concentrations. The resulting data is plotted as a concentration response curve, which typically follows a sigmoidal function, whereby the concentration of the compound is plotted on the x axis and the response (agonistic effect) is plotted on the y axis. The term “EC50” is the “half maximal effective concentration” and denotes the concentration of a particular compound required to obtain 50% of the maximum response (Emax) which is observed for that compound in the given in vitro assay.

| SMILES | Emax [%] | EC50 [nM] |
| --- | --- | --- |
| O=C(NCc1ccnc(-n2cccn2)c1)N[C@@H]1C[C@H]2CC[C@@H]1C2 (racemic) [Example 7, 1-[(2-pyrazol-1-ylpyridin-4-yl)methyl]-3-[rac-(1R,2R,4S)-2-bicyclo[2.2.1]heptanyl]urea] | 101 | 590 |
| O=C(NCc1ccnc(OC(F)F)c1)N[C@@H]1C[C@H]2CC[C@@H]1C2 (racemic) [Example 12, 1-[[2-(difluoromethoxy)pyridin-4-yl]methyl]-3-[rac-(1R,2R,4S)-2-bicyclo[2.2.1]heptanyl]urea] | 81 | 90 |
| COc1cc(CNC(=O)N[C@@H]2C[C@H]3CC[C@@H]2C3)ccn1 (racemic) [Example 14, 1-[(2-methoxypyridin-4-yl)methyl]-3-[rac-(1R,2R,4S)-2-bicyclo[2.2.1]heptanyl]urea] | 86 | 1840 |
| O=C(NCc1ccnc(-n2cnc(C(F)(F)F)c2)c1)N[C@H]1C[C@@H]2CC[C@H]1C2 (racemic) [Example 26, 1-[rac-(1R,2R,4S)-2-bicyclo[2.2.1]heptanyl]-3-[[2-[4-(trifluoromethyl)imidazol-1-yl]pyridin-4-yl]methyl]urea] | 65 | 380 |
| O=C(NCc1ccnc(Br)c1)N[C@H]1C[C@@H]2CC[C@H]1C2 (racemic) [Example 27, 1-[(2-bromopyridin-4-yl)methyl]-3-[rac-(1R,2R,4S)-2-bicyclo[2.2.1]heptanyl]urea] | 76 | 2690 |
| O=C(NCc1ccnc(-c2cnco2)c1)N[C@H]1C[C@@H]2CC[C@H]1C2 (racemic) [Example 28, 1-[[2-(1,3-oxazol-5-yl)pyridin-4-yl]methyl]-3-[rac-(1R,2R,4S)-2-bicyclo[2.2.1]heptanyl]urea] | 76 | 8280 |
| CC(F)(F)c1cc(CNC(=O)N[C@H]2C[C@@H]3CC[C@H]2C3)ccn1 (racemic) [Example 33, 1-[[2-(1,1-difluoroethyl)pyridin-4-yl]methyl]-3-[rac-(1R,2R,4S)-2-bicyclo[2.2.1]heptanyl]urea] | 80 | 260 |
| N#Cc1cc(CNC(=O)N[C@H]2C[C@@H]3CC[C@H]2C3)ccn1 (racemic) [Example 34, 1-[(2-cyanopyridin-4-yl)methyl]-3-[rac-(1R,2R,4S)-2-bicyclo[2.2.1]heptanyl]urea] | 49 | 2770 |
| O=C(NCc1ccnc(C(F)F)c1)N[C@H]1C[C@@H]2CC[C@H]1C2 (racemic) [Example 35, 1-[[2-(difluoromethyl)pyridin-4-yl]methyl]-3-[rac-(1R,2R,4S)-2-bicyclo[2.2.1]heptanyl]urea] | 67 | 1140 |
| O=C(NCc1ccnc(C(F)(F)F)c1)N[C@H]1C[C@@H]2CC[C@H]1C2 (racemic) [Example 36, 1-[rac-(1R,2R,4S)-2-bicyclo[2.2.1]heptanyl]-3-[[2-(trifluoromethyl)pyridin-4-yl]methyl]urea] | 64 | 540 |
| O=C(NCc1ccnc(OC(F)F)c1)N[C@@H]1CC[C@H](C(F)(F)F)C1 (racemic) [Example 59, 1-[[2-(difluoromethoxy)pyridin-4-yl]methyl]-3-[rac-(1R,3S)-3-(trifluoromethyl)cyclopentyl]urea] | 65 | 110 |

The remaining lines, values ahead:

| Emax [%] | EC50 [nM] | SMILES |
| --- | --- | --- |
| 49 | 250 | O=C(NCc1ccnc(OC(F)F)c1)NC1CCC2C1C2(F)F (racemic) [Example 73, 1-[[2-(difluoromethoxy)pyridin-4-yl]methyl]-3-[rac-(1R,5R)-6,6-difluoro-2-bicyclo[3.1.0]hexanyl]urea] |
| 58 | 170 | O=C(NCc1ccnc(OC(F)F)c1)NC1CC2C(C1)C2(F)F (racemic) [Example 74, 1-[[2-(difluoromethoxy)pyridin-4-yl]methyl]-3-[rac-(1R,5S)-6,6-difluoro-3-bicyclo[3.1.0]hexanyl]urea] |
| 55 | 100 | O=C(NCc1ccnc(OCC(F)(F)F)c1)N[C@H]1CC[C@@H](C(F)(F)F)C1 (racemic) [Example 79, 1-[rac-(1R,3S)-3-(trifluoromethyl)cyclopentyl]-3-[[2-(2,2,2-trifluoroethoxy)pyridin-4-yl]methyl]urea] |
| 73 | 1360 | CC1(C)C[C@H](NC(=O)NCc2ccnc(OC(F)F)c2)[C@@H]1O (racemic) [Example 81, 1-[[2-(difluoromethoxy)pyridin-4-yl]methyl]-3-[rac-(1R,2S)-2-hydroxy-3,3-dimethylcyclobutyl]urea] |
| 44 | 6510 | CC1(C)C[C@H](NC(=O)NCc2ccnc(-n3cnc(C(F)(F)F)c3)c2)[C@@H]1O (racemic) [Example 99, 1-[rac-(1R,2S)-2-hydroxy-3,3-dimethylcyclobutyl]-3-[[2-[4-(trifluoromethyl)imidazol-1-yl]pyridin-4-yl]methyl]urea] |
| 72 | 1200 | CC1(C)CC[C@H](O)[C@@H](NC(=O)NCc2ccnc(OC(F)F)c2)C1 (racemic) [Example 101, 1-[[2-(difluoromethoxy)pyridin-4-yl]methyl]-3-[rac-(1R,2R)-2-hydroxy-5,5-dimethylcyclohexyl]urea] |
| 71 | 5860 | O=C(NCc1ccnc(OC(F)F)c1)N[C@@H]1C[C@H]2CC[C@@H]1O2 (racemic) [Example 102, 1-[[2-(difluoromethoxy)pyridin-4-yl]methyl]-3-[rac-(1R,2S,4S)-7-oxabicyclo[2.2.1]heptan-2-yl]urea] |
| 95 | 1700 | O=C(NCc1ccnc(OC(F)F)c1)N[C@H]1C[C@@H]2C[C@H]1[C@H](O)C2 (racemic) [Example 107, 1-[[2-(difluoromethoxy)pyridin-4-yl]methyl]-3-[rac-(1R,2S,4S,6R)-6-hydroxy-2-bicyclo[2.2.1]heptanyl]urea] |
| 63 | 2780 | O=C(NCc1ccnc(OC(F)F)c1)N[C@H]1[C@@H](O)[C@H]2CCC[C@H]21 (racemic) [Example 111, 1-[[2-(difluoromethoxy)pyridin-4-yl]methyl]-3-[rac-(1R,5S,6S,7R)-7-hydroxy-6-bicyclo[3.2.0]heptanyl]urea] |
| 49 | 4910 | O=C(NCc1ccnc(OC(F)F)c1)N[C@H]1C[C@H]2CCC[C@@]2(CO)C1 (racemic) [Example 112, 1-[[2-(difluoromethoxy)pyridin-4-yl]methyl]-3-[rac-(2R,3aS,6aS)-6a-(hydroxymethyl)-2,3,3a,4,5,6-hexahydro-1H-pentalen-2-yl]urea] |
| 63 | 7870 | O=C(NCc1ccnc(OC(F)F)c1)N[C@H]1CCC[C@H]1O (racemic) [Example 118, 1-[[2-(difluoromethoxy)pyridin-4-yl]methyl]-3-[rac-(1R,2S)-2-hydroxycyclopentyl]urea] |
| 53 | 3450 | O=C(NCc1ccnc(OC(F)F)c1)NC[C@@]12CCC[C@@H]1CCO2 (racemic) [Example 120, 1-[[2-(difluoromethoxy)pyridin-4-yl]methyl]-3-[[rac-(3aR,6aR)-2,3,3a,4,5,6-hexahydrocyclopenta[b]furan-6a-yl]methyl]urea] |
| 40 | 4160 | O=C(NCc1ccnc(OC(F)F)c1)N[C@@H]1CC[C@@H]1F (racemic) [Example 123, 1-[[2-(difluoromethoxy)pyridin-4-yl]methyl]-3-[rac-(1R,2S)-2-fluorocyclobutyl]urea] |
